Laboratory results reported in patent US8231858B2, “Diagnostic imaging agents with MMP inhibitory activity” (GE Healthcare Limited, priority 2003, dated 2012).

Target: T1, MMP-2 (Homo sapiens, UniProt P08253)
T1 sequence (P08253 110-660): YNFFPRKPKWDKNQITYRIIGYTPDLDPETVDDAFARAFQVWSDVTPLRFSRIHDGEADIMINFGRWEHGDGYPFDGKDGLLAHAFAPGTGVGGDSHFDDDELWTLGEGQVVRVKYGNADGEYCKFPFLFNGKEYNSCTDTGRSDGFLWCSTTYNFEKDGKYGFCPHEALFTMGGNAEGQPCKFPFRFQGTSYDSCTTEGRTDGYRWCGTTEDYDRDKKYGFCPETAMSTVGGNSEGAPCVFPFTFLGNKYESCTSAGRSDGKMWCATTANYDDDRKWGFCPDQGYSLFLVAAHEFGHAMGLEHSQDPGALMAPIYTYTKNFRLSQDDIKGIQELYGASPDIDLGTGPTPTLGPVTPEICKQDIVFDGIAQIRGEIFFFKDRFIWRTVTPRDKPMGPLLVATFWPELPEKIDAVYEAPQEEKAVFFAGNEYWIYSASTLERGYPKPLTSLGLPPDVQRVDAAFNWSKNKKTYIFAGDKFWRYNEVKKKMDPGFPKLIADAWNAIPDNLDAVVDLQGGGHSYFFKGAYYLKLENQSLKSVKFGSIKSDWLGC
Experiment: Assay for MMP-2 inhibitory activity (fluorogenic substrate)
Assay type: biochemical
Conditions: MMP-2 1 nM, preincubation 37° C. for 30 min, pH 7.5
Method: (§1) The synthetic broad-spectrum fluorogenic substrate (7-methoxycoumarin-4-yl) acetyl pro-Leu-Gly-Leu-(3-(2,4-dinitrophenyl)-L-2,3-diamino-propionyl)-Ala-Arg-NH2 (R & D Systems) was used to assay MMP-2 and MMP-9 activity as described previously [Huang et al J. Biol. Chem. 272 22086-22091 (1997)]. […] An aliquot (10 μl) of substrate (5 μM) was then added to […] of preincubated MMP/compound mixture, and activity was determined at 37° C. by following product release with time. The fluorescence changes were monitored using a Fusion Universal Microplate Analyzer (Packard Bioscience) with excitation and emission wavelengths set to 330 and 390 nm, respectively for MMP-2 and MMP-9. Inhibited rates were measured from the initial 10 min of the reaction profile where product release was linear with time. Nonlinear regression analysis was performed using the XMGRACE 5.18 software under linux.

| IC50 [nM] | Structure (SMILES) |
| --- | --- |
| 57.5 | CC(C)[C@H](C(=O)NO)N(Cc1cccnc1)S(=O)(=O)c1ccc(O)cc1 [Compound 13] |
| 16.2 | CC(C)[C@H](C(=O)NO)N(Cc1cccnc1)S(=O)(=O)c1ccc(Br)cc1 [Compound 14] |
| 320 | CC(C)[C@H](C(=O)NO)N(Cc1cccnc1)S(=O)(=O)c1ccc(O)c(I)c1 [Compound 8] |
| 2.5 | CC(C)C(C(=O)NO)N(Cc1cccnc1)S(=O)(=O)c1ccc(I)cc1 (centres unmarked) [Compound 9] |

Target: MMP-9 (Homo sapiens, UniProt P14780)
Sequence (P14780 94-707, species assumed): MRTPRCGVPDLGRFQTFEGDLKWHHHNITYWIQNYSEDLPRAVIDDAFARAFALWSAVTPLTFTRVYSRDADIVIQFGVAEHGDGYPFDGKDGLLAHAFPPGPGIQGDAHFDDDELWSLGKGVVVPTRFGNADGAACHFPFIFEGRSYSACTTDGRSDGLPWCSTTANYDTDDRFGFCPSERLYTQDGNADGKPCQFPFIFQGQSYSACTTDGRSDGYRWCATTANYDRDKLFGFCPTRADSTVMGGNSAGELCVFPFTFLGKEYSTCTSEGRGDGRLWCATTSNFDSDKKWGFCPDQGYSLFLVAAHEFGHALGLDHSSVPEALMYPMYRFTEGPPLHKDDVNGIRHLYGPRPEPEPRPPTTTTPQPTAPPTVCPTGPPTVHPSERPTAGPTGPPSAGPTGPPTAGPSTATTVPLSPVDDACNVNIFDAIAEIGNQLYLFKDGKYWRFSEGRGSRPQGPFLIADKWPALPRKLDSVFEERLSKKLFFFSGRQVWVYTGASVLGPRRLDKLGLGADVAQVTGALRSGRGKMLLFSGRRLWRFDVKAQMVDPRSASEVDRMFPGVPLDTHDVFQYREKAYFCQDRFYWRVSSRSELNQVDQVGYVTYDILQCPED
Experiment: Assay for MMP-9 inhibitory activity (fluorogenic substrate)
Assay type: biochemical
Conditions: MMP-9 2 nM, preincubation 37° C. for 30 min, pH 7.5
Method: as §1

| IC50 [nM] | Structure (SMILES) |
| --- | --- |
| 257 | CC(C)[C@H](C(=O)NO)N(Cc1cccnc1)S(=O)(=O)c1ccc(O)cc1 [Compound 13] |
| 76 | CC(C)[C@H](C(=O)NO)N(Cc1cccnc1)S(=O)(=O)c1ccc(Br)cc1 [Compound 14] |
| 153 | CC(C)[C@H](C(=O)NO)N(Cc1cccnc1)S(=O)(=O)c1ccc(O)c(I)c1 [Compound 8] |
| 4.6 | CC(C)C(C(=O)NO)N(Cc1cccnc1)S(=O)(=O)c1ccc(I)cc1 (centres unmarked) [Compound 9] |

Test system: not given
Experiment: not given
Conditions: not given

| melting point [°C] | Structure (SMILES) |
| --- | --- |
| 169 to 170 | CC(C)[C@H](C(=O)NO)N(Cc1cccnc1)S(=O)(=O)c1ccc(Br)cc1 [Compound 14] |
| 201 to 203 | CC(C)[C@H](C(=O)NO)N(Cc1cccnc1)S(=O)(=O)c1ccc(O)c(I)c1 [Compound 8] |
| 169 | CC(C)C(C(=O)NO)N(Cc1cccnc1)S(=O)(=O)c1ccc(I)cc1 (centres unmarked) [Compound 9] |
